Results on seven molecules are retold here after patent US7476646B1, “Agricultural promoters/active ingredients” (CJB Industries, Inc., priority 2004, dated 2009).

The test system of one experiment is Erwinia carotovora. The experiment is described as follows: Effect of quat salts on Erwinia carotovora (percent inhibition). In kind it is cell-based. As to the method: To measure the antibacterial effectiveness of the quat salts, the effect of various salts, at an application rate of 50 ppm, was measured. The data regarding the effectiveness is summarized below:
The effectiveness of lower concentrations of the quat salts at inhibiting Erwinia carotovora infection was also measured, where various additives were also added.

Another experiment has as its system Staphylococcus. Conditions: on Staphylococcus; cited from earlier work.
The conditions of experiment [1]: on contact lenses; cited from earlier work.
The subject of experiment [2] is fungal and bacterial pathogens. The experiment is described as follows: Field control trial, plant growth, grower rating, phytotoxicity, overall control. In kind it is in vivo. Conditions: comparison area. From the text: This composition was applied to a field to which other treatments had been applied. The conditions under which this field control was studies are summarized below.
Treatment—400 ppm Dicocodimethylammonium chloride+1200 ppm EDTA+400 ppm Citric acid+40 ppm soyamine+3000 ppm soybean oil+180 ppm Tergitol NP-6
The field was visited the day of application for a pre-spray disease rating. Major problems were observed, and minor problems were observed as well. Ratings were made on the major diseases Bacterial Spot, Grey Mold, Blight, and Leaf Spot. The observations and % ratings were also taken for Rhizoctonia, Powdery Mildew, Stem Rot, and Bacterial Speck.
The quat salt treatment was applied at a rate of 1 gallon of the composition/100 gallons of water/acre. This relatively low treatment rate provided some concerns regarding complete coverage due to the low volume of water and bushiness of the plants. Blight and Stem Rot were both located at the lower portion of the plant and concealed by a lot of foliage.
Four plants had been marked on day 1 so that their progress could be tracked both in terms of growth and disease control. All four had grown between 5 and 7 inches in height with a tremendous amount of flowering and new growth present.
The grower gave the Treatment a 4 on a scale of 1 (Poor) to 5 (Perfect), when compared to hydrogen peroxide. H is rating for hydrogen peroxide was 2.5 to 3.

As for Cocoalkyltrimethyl ammonium chloride, the “Percent Inhibition” value in the experiment with Erwinia carotovora (application rate of 50 ppm) stood at 25%.

Turning to Soyalkyltrimethyl ammonium chloride, in the experiment on Erwinia carotovora (application rate of 50 ppm), the “Percent Inhibition” value is listed as 35%.

For Benzalkonium chloride [BAC], in the experiment on Staphylococcus, the “effectiveness relative to other QACs tested” value is on record as “about 2.5”. Also, the “effectiveness relative to other QACs” value in experiment [1] was “about 6 times”.

Turning to `S=C([S-])NCCNC(=S)[S-].[Zn+2]` [Dithane, zinc ethylenebis(dithiocarbamate)], in experiment [2], the “response of diseases in treated area” value is “responding (especially on molds and mildews) but not as rapid and completely”.

Consider Tallowalkyltrimethyl ammonium chloride, for which the “Percent Inhibition” value in the experiment with Erwinia carotovora (application rate of 50 ppm) was 30%.

Turning to Dicoco dimethyl ammonium chloride, the results for the “Percent Inhibition” value in the experiment with Erwinia carotovora (30 ppm dicoco dimethyl ammonium chloride with additive (level relative to quat)) and in the experiment on Erwinia carotovora (application rate of 50 ppm) were 40% and 75%, respectively.

As for Ditallow dimethyl ammonium chloride, the “Percent Inhibition” value with Erwinia carotovora (application rate of 50 ppm) was 50%.
